# Results from patent US20260224512A1, “USE OF 5-METHOXY-2-AMINOINDAN ("MEAI") IN METHODS FOR TREATING METABOLIC SYNDROME” (Clearmind Labs Corp., priority 2022, published 2026).
# Assays:
# C57BL/6 mice [1] = experiment: Acute multi-parameter metabolic assessment (food and water intake, respirometry); type: in vivo
# Method: (§1) Male 6-week-old C57BL/6 mice (Envigo, Israel) were maintained under a 12-h light/dark cycle and fed ad libitum. A total of 32 animals were divided into four experimental groups (N=8 mice per group) receiving single doses of 40, 60, or 100 mg/kg of MEAI or vehicle (sterile water), which was administered via oral gavage two hours prior to the dark phase. The animals were monitored for 48 hours post-dose for drug tolerability, food and water intakes as well as activity and metabolic parameters. At the end of the experiment, the animals were euthanized, and tissues (brain, liver, fat, and kidney) and blood were collected and stored frozen for future analyses. To generate diet-induced obesity, C57BI6/J mice were fed either a high-fat diet (HFD) (60% of calories from fat, 20% from protein, and 20% from carbohydrates; Research Diet, D12492) or a standard laboratory diet (STD, 14% fat, 24% protein, 62% carbohydrates; NIH-31 rodent diet) for 18 weeks.
# (§2) Multi-parameter metabolic assessment. The metabolic profiles and food and water intakes of the mice were assessed by using the Promethion High-Definition Behavioral Phenotyping System (Sable Instruments, Inc., Las Vegas, NV, USA). Data acquisition and instrument control were performed using MetaScreen software version 2.2.18.0, and the obtained raw data were processed using ExpeData version 1.8.4 using an analysis script detailing all aspects of data transformation. Mice with free access to food and water were subjected to a standard 12 h light/12 h dark cycle, which consisted of a 48 h acclimation period followed by 24 h of sampling. Respiratory gases were measured by using the GA-3 gas analyzer (Sable Systems, Inc., Las Vegas, NV, USA) using a pull-mode, negative pressure system. Air flow was measured and controlled by FR-8 (Sable Systems, Inc., Las Vegas, NV, USA), with a set flow rate of 2000 mL/min. Water vapor was continuously measured and its dilution effect on O2 and CO2 was mathematically compensated. Respiratory exchange rate (RER) was calculated as the ratio of CO2 produced (VCO2) to O2 consumed (VO2) using Equation (1): […]
# (§3) Total energy expenditure (TEE) was calculated using VO2 and RER, according to Equation (2): […]
# (§4) Fat oxidation (FO) and carbohydrate oxidation (CHO) were calculated using VO2 and VCO2 based on Equations (3) and (4), respectively: […]
# C57BL/6 mice [2] = experiment: Acute single-dose tolerability of MEAI; type: in vivo
# Method: as §1
# DIO mouse model [3] = experiment: Chronic MEAI in DIO model: food consumption and energy metabolism; type: in vivo, mice; details: 40 mg/kg/day
# Method: (§5) Effect of MEAI on Obesity. Male C57BL/6 mice were used to establish DIO by feeding them a high-fat diet (HFD; 60% Kcal fat, 20% Kcal protein, and 20% Kcal carbohydrates; Research Diet, D12492) for 18 weeks. After this period, mice were treated with either vehicle (sterile water, N=8) or MEAI (N=11) daily for 28 days by gavage at a dose of 40 mg/kg/day. Age-matched control mice (N=10) on a standard diet (STD; 14% Kcal fat, 24% Kcal protein, 62% Kcal carbohydrates; NIH-31 rodent diet) and received vehicle daily. The body weight of all mice was monitored daily, and total body fat and lean mass were determined by EchoMRI-100H™ (Echo Medical Systems LLC, Houston, TX, USA). On Day 29, at the end of the experimental period, mice were euthanized by a cervical dislocation under anesthesia. The kidneys, brain, liver, and fat pads were removed and weighed, and samples were either snap-frozen or fixed in buffered 4% formalin. Trunk blood was collected to determine biochemical parameters.
# as §2, §3, §4
# DIO mouse model [4] = experiment: Glucose tolerance test (ipGTT), insulin tolerance test (ipITT) and glycemic parameters in DIO mice; type: in vivo; details: 40 mg/kg/day
# Method: as §5
# Glucose Tolerance Test (ipGTT) and the Insulin Tolerance Test (ipITT). On day 25 of the experiment, mice were subjected to an overnight fasting and then injected with glucose (1.5 g/kg i.p.) on the following day (day 26). Blood glucose levels were determined at 0, 15, 30, 45, 60, 90, and 120 min after injection using the Contour® glucometer (Bayer, Pittsburgh, PA, USA). The mice were then fasted for 6 h on the next day (day 27) before being administered insulin (0.75 U/kg, i.p.; Actrapid vials, Novo Nordisk A/S, Bagsværd, Denmark). Blood glucose levels were determined at the same intervals as described above. To assess insulin resistance, the homeostasis model assessment insulin resistance (HOMA-IR) was calculated as fasting serum insulin ([μU/mL]×fasting plasma glucose [mmol/L]/22.5). The relative insulin sensitivity index (ISI) was calculated as 1/(glucose×insulin)×1000, with glucose expressed as mg/dl and insulin as mU/L.
# (§6) Blood and urine biochemistry. Serum levels of alanine aminotransferase (ALT), aspartate aminotransferase (AST), alkaline phosphatase (ALP), cholesterol, triglycerides, high-density lipoprotein (HDL), and low-density lipoprotein (LDL) were determined by using the Cobas C-111 chemistry analyzer (Roche, Switzerland). Blood urea nitrogen (BUN) was calculated based on serum urea levels as follows: BUN (mg/dL)=Urea (mg/dL)/2.1428. Fasting blood glucose was measured using the Contour® glucometer (Bayer, Pittsburgh, PA). Serum insulin was determined using an Ultra-Sensitive Mouse Insulin ELISA kit (Crystal Chem, Inc., Elk Grove Village, IL, USA).
# DIO mouse model [5] = experiment: Chronic MEAI in HFD-induced obesity (DIO) model: body weight and body composition; type: in vivo, mice; details: 28 days
# Method: as §5
# DIO mouse model [6] = experiment: Kidney and liver weight in DIO mice; type: in vivo; details: 40 mg/kg/day, HFD-fed mice
# Method: as §5
# DIO mouse model [7] = experiment: Blood biochemistry in DIO mice; type: in vivo; details: 40 mg/kg/day
# Method: as §5, §6
# [8] = single dose 40, 60, 100 mg/kg, 24-hour period
# [9] = single dose, 60 and 100 mg doses
# [10] = compared to HFD vehicle-treated group
smiles,measurement,setting,value
"COc1ccc2c(c1)CC(N)C2 (centres unmarked) [MEAI, 5-methoxy-2-aminoindan]",carbohydrate oxidation (CHO) rate,C57BL/6 mice [1]; [8],corresponding elevations
same,fat oxidation (FO) rate,C57BL/6 mice [1]; [8],corresponding elevations
same,total energy expenditure (TEE),C57BL/6 mice [1]; [8],significant dose-dependent increases
same,rate of carbon dioxide emission (VCO2),C57BL/6 mice [1]; [9],higher rates
same,rate of oxygen consumption (VO2),C57BL/6 mice [1]; [9],higher rates
same,respiratory exchange rate (RER),"C57BL/6 mice [1]; single dose, light phase, 60 and 100 mg doses",increase
same,water consumption,"C57BL/6 mice [1]; single oral dose 40, 60 or 100 mg/kg",no notable changes
same,feeding patterns (food intake),"C57BL/6 mice [1]; single oral dose 40, 60 or 100 mg/kg, dark and light phases, vs vehicle",did not reach statistical significance
same,deaths after administration,"C57BL/6 mice [2]; single oral dose 100 mg/kg, within a few hours, with stress of metabolic testing",two subjects in the 100 mg/kg group died
same,"drug tolerability, changes in behavior","C57BL/6 mice [2]; single oral dose 40 and 60 mg/kg, lean mice","well-tolerated, with no observable changes in behavior"
same,carbohydrate oxidation (CHO),DIO mouse model [3]; HFD-fed mice,no effect of the drug itself
same,respiratory exchange rate (RER),"DIO mouse model [3]; HFD-fed mice, in comparison to STD vehicle group",slightly decreased
same,food intake per meal,"DIO mouse model [3]; HFD-fed mice, both MEAI and vehicle HFD groups",reduction in food intake per meal
same,carbon dioxide production,DIO mouse model [3]; [10],slightly increased
same,oxygen consumption,DIO mouse model [3]; [10],slightly increased
same,energy expenditure,"DIO mouse model [3]; compared to both HFD and STD vehicle groups, light and dark phases",significant increase
same,overall rate of fat oxidation (FO),DIO mouse model [3]; compared to both HFD- and STD-vehicle groups,increase
same,water intake,DIO mouse model [3]; obese mice,did not have any effect
same,HOMA-IR,DIO mouse model [4],beneficial effects
same,fasting blood glucose,DIO mouse model [4],reduced
same,glucose metabolism (glucose and insulin tolerance tests),DIO mouse model [4],significant improvement
same,insulin levels,DIO mouse model [4],reduced
same,insulin sensitivity (insulin tolerance test),DIO mouse model [4],normalized
same,insulin sensitivity index (ISI),DIO mouse model [4],beneficial effects
same,body weight of HFD-fed mice,DIO mouse model [5]; 40 mg/kg/day by gavage,significantly reduced
same,decrease in total body weight compared to the obese vehicle-treated group,"DIO mouse model [5]; 40 mg/kg/day by gavage, HFD-fed mice",~15%
same,adiposity associated with obesity,"DIO mouse model [5]; 40 mg/kg/day, HFD-fed mice",reduced
same,"lean body mass, lean body mass ratio, net lean mass","DIO mouse model [5]; 40 mg/kg/day, HFD-fed mice",preserved
same,overall fat mass,"DIO mouse model [5]; 40 mg/kg/day, HFD-fed mice",reducing
same,kidney-to-body weight ratio,DIO mouse model [6],normalized
same,liver weight,DIO mouse model [6],reduced
same,liver weight to body weight ratio,DIO mouse model [6],normalized
same,HDL-to-LDL ratio,DIO mouse model [7]; HFD-fed mice,increased
same,blood urea nitrogen (BUN) levels,DIO mouse model [7]; HFD-fed mice,slight improvements
same,cholesterol levels,"DIO mouse model [7]; HFD-fed mice, not statistically significant",tendency towards decreased
same,circulating triglyceride levels,DIO mouse model [7]; any of the study groups,no significant alterations
same,HDL levels,DIO mouse model [7]; compared to HFD vehicle group,without notable changes
same,LDL levels,DIO mouse model [7]; compared to HFD vehicle group,significantly reduced
same,ALP levels,DIO mouse model [7]; compared to HFD-vehicle group,significantly reduced
same,ALT levels,DIO mouse model [7]; compared to HFD-vehicle group,did not significantly alter
same,AST levels,DIO mouse model [7]; compared to HFD-vehicle group,did not significantly alter
